Source: patent US20170190705A1, “Compositions and Methods for Inhibiting BMP” (THE BRIGHAM AND WOMAN'S HOSPITAL, INC., priority 2014, published 2017)

Legend:
Assay type in all cases: biochemical
[1] = molecular target: FMS (Homo sapiens, UniProt P07333); assay: Kinome profiling FMS; settings: read-out: Inhibitory activity FMS; for inhibition at 0.1 µM: 100 nM
Description: (§1) . The kinome-wide selectivity was determined following the methods previously reported by Mohedas et al., ACS Chem Biol 2013, 8, 1291-1302 and Sanvitale et al., PLoS One 2013, 8, e62721.

[2] = molecular target: P38β (Homo sapiens, UniProt Q15759); assay: Kinome profiling P38β; settings: read-out: Inhibitory activity P38β; for inhibition at 0.1 µM: 100 nM
Description: as §1

[3] = molecular target: MARK1 (Homo sapiens, UniProt Q9P0L2); assay: Kinome profiling MARK1; settings: read-out: Inhibitory activity MARK1; for inhibition at 0.1 µM: 100 nM
Chain of MARK1 (Q9P0L2 whole entry): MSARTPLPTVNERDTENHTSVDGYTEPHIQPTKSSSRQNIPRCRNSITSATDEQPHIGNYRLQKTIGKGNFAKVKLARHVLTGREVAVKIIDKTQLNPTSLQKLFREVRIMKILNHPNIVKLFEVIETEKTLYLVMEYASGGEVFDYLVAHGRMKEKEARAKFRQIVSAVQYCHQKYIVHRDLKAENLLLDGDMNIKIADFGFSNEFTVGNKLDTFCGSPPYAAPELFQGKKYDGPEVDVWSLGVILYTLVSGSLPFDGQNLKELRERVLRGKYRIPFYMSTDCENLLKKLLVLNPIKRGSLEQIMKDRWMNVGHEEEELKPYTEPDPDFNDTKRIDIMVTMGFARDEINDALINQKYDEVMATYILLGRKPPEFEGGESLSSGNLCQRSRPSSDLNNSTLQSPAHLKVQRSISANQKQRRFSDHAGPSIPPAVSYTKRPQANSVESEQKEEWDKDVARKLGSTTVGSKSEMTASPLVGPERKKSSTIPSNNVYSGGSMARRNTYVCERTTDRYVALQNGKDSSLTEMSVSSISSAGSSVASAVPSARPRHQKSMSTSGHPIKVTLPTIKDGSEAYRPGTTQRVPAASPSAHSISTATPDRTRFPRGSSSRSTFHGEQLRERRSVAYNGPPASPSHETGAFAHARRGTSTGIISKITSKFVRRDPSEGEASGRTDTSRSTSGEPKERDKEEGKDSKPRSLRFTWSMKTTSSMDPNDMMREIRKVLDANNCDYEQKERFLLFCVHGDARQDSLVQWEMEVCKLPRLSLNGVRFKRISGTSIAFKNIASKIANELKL
Description: as §1

[4] = molecular target: T1, IKK-ε (Homo sapiens, UniProt Q14164); assay: Kinome profiling IKK-ε; settings: read-out: Inhibitory activity IKK-ε; for inhibition at 0.1 µM: 100 nM
T1 sequence (Q14164 1-716): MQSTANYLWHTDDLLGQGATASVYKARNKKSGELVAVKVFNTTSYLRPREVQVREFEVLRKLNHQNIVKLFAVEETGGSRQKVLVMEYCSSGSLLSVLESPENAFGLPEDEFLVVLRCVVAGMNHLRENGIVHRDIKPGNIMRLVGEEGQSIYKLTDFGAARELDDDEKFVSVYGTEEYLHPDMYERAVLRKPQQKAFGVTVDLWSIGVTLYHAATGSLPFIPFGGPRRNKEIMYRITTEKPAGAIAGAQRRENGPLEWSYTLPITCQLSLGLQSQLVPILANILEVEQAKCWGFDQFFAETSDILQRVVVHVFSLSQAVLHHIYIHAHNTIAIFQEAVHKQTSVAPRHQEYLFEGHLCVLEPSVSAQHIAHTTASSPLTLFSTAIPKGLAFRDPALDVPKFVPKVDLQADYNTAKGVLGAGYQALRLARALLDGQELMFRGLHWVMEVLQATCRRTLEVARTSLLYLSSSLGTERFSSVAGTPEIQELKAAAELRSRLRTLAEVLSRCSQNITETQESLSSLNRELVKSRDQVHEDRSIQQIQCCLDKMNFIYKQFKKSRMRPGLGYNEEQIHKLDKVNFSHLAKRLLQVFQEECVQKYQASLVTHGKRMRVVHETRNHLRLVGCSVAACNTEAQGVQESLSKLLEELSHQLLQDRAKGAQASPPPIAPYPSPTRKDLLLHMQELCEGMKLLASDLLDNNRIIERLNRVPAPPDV
Description: as §1

[5] = molecular target: FLT-4 (Homo sapiens, UniProt P35916); assay: Kinome profiling FLT-4; settings: read-out: Inhibitory activity FLT-4; for inhibition at 0.1 µM: 100 nM
Chain of FLT-4 (P35916 25-1363): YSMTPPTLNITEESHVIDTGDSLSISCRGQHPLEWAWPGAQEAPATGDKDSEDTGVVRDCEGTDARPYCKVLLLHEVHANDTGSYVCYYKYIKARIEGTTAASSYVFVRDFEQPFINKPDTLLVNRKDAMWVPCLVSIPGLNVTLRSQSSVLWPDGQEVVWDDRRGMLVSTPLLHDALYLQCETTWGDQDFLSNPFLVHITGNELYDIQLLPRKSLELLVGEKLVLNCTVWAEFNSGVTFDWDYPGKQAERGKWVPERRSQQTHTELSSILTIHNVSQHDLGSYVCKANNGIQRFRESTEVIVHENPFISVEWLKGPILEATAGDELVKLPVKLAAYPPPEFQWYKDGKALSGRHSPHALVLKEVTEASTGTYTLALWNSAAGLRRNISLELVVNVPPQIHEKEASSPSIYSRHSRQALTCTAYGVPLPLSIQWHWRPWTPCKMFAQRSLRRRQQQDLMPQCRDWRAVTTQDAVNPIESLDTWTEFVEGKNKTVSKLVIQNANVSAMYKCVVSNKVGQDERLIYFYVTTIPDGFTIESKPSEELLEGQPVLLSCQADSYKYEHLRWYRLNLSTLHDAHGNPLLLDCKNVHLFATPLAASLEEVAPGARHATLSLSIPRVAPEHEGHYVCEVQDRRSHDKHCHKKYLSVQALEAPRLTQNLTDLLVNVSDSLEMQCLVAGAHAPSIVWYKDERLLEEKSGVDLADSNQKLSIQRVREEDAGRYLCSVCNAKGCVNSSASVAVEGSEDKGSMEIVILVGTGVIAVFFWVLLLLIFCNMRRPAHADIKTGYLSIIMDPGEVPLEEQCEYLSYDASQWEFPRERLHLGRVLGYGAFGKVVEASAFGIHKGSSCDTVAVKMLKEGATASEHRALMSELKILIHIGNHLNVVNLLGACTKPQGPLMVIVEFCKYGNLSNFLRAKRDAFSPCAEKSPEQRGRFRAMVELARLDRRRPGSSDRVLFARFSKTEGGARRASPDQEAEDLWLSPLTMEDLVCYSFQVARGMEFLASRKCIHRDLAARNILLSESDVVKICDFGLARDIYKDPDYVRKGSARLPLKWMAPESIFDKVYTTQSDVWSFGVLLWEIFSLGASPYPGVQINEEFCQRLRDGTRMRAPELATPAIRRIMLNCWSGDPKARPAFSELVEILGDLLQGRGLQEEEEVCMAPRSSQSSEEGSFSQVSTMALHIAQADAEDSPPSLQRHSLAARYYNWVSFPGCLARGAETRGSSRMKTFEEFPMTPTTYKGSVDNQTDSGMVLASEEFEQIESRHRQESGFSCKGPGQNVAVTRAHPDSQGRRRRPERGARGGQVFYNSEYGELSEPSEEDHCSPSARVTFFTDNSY
Description: as §1

[6] = molecular target: T2, NEK2 (Homo sapiens, UniProt P51955); assay: Kinome profiling NEK2; settings: read-out: Inhibitory activity NEK2; for inhibition at 0.1 µM: 100 nM
T2 sequence (P51955 1-445): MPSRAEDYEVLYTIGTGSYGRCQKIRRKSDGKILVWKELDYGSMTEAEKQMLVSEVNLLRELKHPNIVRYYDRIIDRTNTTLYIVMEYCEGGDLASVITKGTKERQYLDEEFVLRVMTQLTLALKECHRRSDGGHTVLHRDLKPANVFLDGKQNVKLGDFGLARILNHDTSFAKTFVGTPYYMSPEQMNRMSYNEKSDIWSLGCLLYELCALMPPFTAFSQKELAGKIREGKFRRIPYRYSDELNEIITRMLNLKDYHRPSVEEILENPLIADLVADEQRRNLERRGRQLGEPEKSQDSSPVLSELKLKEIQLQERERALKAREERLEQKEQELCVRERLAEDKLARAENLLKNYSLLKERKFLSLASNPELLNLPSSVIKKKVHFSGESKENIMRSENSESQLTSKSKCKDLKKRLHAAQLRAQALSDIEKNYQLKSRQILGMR
Description: as §1

[7] = molecular target: AKT1 (Homo sapiens, UniProt P31749); assay: Kinome profiling AKT1; settings: read-out: Inhibitory activity AKT1; for inhibition at 0.1 µM: 100 nM
Description: as §1

[8] = molecular target: CDK2/cyclinE (Homo sapiens, UniProt P24941); assay: Kinome profiling CDK2/cyclinE; settings: read-out: Inhibitory activity CDK2/cyclinE; for inhibition at 0.1 µM: 100 nM
Description: as §1

[9] = molecular target: PKA (Homo sapiens, UniProt P17612); assay: Kinome profiling PKA; settings: read-out: Inhibitory activity PKA; for inhibition at 0.1 µM: 100 nM
Description: as §1

[10] = molecular target: CDK5/p35 (Homo sapiens, UniProt Q00535); assay: Kinome profiling CDK5/p35; settings: read-out: Inhibitory activity CDK5/p35; for inhibition at 0.1 µM: 100 nM
Chain of CDK5/p35 (Q00535 whole entry): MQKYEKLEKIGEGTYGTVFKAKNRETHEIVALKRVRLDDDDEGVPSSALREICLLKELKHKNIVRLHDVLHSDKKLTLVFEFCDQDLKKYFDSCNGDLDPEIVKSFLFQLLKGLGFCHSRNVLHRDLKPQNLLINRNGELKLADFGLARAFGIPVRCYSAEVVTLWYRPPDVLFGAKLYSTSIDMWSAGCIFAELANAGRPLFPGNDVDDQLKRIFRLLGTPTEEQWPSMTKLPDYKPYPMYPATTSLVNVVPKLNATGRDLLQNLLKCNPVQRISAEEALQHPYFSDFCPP
Chain of CDK5/p35 (Q15078 whole entry partner): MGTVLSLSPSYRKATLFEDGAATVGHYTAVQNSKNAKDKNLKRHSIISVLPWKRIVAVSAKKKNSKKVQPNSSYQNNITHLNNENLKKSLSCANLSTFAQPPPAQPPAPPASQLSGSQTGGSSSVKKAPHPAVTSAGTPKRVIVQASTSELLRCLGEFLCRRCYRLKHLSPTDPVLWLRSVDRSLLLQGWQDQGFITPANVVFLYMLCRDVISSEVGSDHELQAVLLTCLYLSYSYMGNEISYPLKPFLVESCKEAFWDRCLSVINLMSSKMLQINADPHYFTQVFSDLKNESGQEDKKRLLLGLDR
Description: as §1

[11] = molecular target: GSK3β (Homo sapiens, UniProt P49841); assay: Kinome profiling GSK3β; settings: read-out: Inhibitory activity GSK3β; for inhibition at 0.1 µM: 100 nM
Chain of GSK3β (P49841 whole entry): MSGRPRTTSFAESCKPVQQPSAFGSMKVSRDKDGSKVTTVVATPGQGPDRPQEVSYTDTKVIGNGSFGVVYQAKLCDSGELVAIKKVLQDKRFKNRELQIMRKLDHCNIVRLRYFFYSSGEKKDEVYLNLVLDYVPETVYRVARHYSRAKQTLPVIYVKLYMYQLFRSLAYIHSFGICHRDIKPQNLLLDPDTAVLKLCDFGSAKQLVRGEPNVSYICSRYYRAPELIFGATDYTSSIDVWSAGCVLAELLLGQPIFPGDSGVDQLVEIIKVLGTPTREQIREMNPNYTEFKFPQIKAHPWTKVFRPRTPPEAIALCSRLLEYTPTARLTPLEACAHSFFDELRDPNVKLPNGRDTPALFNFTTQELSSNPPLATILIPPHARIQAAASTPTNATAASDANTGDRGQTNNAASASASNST
Description: as §1

[12] = molecular target: PKC-η (Homo sapiens, UniProt P24723); assay: Kinome profiling PKC-η; settings: read-out: Inhibitory activity PKC-η; for inhibition at 0.1 µM: 100 nM
Chain of PKC-η (P24723 whole entry): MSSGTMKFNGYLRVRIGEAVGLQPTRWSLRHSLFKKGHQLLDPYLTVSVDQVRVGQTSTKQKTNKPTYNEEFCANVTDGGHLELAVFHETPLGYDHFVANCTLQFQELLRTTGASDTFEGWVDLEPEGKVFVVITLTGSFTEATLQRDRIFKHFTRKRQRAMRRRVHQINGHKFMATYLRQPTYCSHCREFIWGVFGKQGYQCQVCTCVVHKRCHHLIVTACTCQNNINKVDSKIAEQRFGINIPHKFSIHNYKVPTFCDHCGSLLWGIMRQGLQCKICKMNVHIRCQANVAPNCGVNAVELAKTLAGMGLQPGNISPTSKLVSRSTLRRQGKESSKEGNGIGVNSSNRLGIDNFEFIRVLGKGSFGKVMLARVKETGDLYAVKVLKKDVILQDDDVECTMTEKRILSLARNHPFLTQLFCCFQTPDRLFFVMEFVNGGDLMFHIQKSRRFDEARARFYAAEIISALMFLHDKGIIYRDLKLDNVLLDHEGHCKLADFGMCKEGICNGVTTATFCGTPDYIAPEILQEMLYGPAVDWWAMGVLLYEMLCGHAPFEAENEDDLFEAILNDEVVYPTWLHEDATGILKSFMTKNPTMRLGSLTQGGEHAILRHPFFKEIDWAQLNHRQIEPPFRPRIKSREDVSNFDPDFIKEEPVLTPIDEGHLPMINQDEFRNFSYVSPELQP
Description: as §1

Chain of FMS (P07333 20-972): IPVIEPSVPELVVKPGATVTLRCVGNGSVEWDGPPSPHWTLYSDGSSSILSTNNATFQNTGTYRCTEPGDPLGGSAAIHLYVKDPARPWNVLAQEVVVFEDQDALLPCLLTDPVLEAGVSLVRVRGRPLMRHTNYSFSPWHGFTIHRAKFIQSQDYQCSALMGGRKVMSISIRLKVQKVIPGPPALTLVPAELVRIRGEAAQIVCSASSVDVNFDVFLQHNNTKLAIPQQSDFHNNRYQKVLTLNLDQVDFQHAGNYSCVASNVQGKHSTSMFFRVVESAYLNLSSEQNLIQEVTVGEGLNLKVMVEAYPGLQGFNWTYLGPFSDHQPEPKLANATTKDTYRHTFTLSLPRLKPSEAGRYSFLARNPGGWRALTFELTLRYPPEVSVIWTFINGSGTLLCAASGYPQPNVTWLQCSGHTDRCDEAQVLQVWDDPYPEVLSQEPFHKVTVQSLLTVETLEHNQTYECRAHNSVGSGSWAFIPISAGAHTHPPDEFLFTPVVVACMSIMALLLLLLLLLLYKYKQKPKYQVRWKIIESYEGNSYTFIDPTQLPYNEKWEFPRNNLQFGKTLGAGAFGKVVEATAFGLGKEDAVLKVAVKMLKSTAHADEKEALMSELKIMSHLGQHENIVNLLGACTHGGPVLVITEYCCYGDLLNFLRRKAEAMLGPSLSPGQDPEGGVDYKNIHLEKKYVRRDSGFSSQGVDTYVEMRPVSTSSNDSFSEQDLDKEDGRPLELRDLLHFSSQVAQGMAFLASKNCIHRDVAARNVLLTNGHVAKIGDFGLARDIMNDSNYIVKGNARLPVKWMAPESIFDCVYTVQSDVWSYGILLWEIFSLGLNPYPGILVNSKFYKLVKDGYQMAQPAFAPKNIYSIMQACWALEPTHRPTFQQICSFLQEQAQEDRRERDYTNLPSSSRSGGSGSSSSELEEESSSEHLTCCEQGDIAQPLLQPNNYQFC

| Structure (SMILES) | inhibition at 0.1 µM [1] | inhibition at 1 µM [1] | inhibition at 0.1 µM [2] | inhibition at 1 µM [2] | inhibition at 0.1 µM [3] | inhibition at 1 µM [3] | inhibition at 0.1 µM [4] | inhibition at 1 µM [4] | inhibition at 0.1 µM [5] | inhibition at 1 µM [5] | inhibition at 0.1 µM [6] | inhibition at 1 µM [6] | inhibition at 0.1 µM [7] | inhibition at 1 µM [7] | inhibition at 0.1 µM [8] | inhibition at 1 µM [8] | inhibition at 0.1 µM [9] | inhibition at 1 µM [9] | inhibition at 0.1 µM [10] | inhibition at 1 µM [10] | further results |
| --- | --- | --- | --- | --- | --- | --- | --- | --- | --- | --- | --- | --- | --- | --- | --- | --- | --- | --- | --- | --- | --- |
| COc1cc(-c2cc(-c3ccc(N4CCNCC4)cc3)cnc2C)cc(OC)c1OC [Compound 10, 1-(4-(6-methyl-5-(3,4,5-trimethoxyphenyl)pyridin-3-yl)phenyl)piperazine] | 5% | 33% | 1% | 11% | 0% | 2% | 2% | 2% | 3% | 9% | 3% | 2% | 0% | 0% | -1% | 3% | 1% | 3% | 2% | 2% | inhibition at 0.1 µM [11]: 2%; inhibition at 1 µM [11]: 4%; inhibition at 0.1 µM [12]: 5%; inhibition at 1 µM [12]: 18% |
| COc1cc(-c2cc(-c3ccc(N4CCNCC4)cc3)cnc2N)cc(OC)c1OC [Compound 15, 5-(4-(piperazin-1-yl)phenyl)-3-(3,4,5-trimethoxyphenyl)pyridin-2-amine] | 23% | 65% | 10% | 44% | 3% | 31% | 1% | 20% | 1% | 4% | 4% | 2% | 0% | 2% | 1% | 2% | 1% | 2% | 0% | 0% | inhibition at 0.1 µM [11]: 0%; inhibition at 1 µM [11]: -1%; inhibition at 0.1 µM [12]: 3%; inhibition at 1 µM [12]: -1% |
